These results are taken from US20250326814A1, “MODIFIED OXYNTOMODULIN AND METHODS OF USE THEREOF” (OPKO BIOLOGICS LTD., priority 2024, published 2025).

Starred links: 1 amine or outer side, 2 acyl side, 3 side chain; linkers in the order of their positions; H or OH if unused. Non-standard residues stand in square brackets, D forms with d. Residues, ends and D or L forms follow the SMILES beside them. Groups on a side chain read outwards from the residue. *: point of attachment. C20 diacid = O=C(O)CCCCCCCCCCCCCCCCCCC(=O)*; γGlu = O=C(O)[C@H](CCC(=O)[*:2])N[*:1]; AEEA = NCCOCCOCC(=O)O; Aib = CC(C)(N)C(=O)O

The target in data set [1] is T1, GLP1 (Homo sapiens, UniProt P43220). Briefly: CBA potency assay, GLP1 (Tables 10 and 11). The format is cell-based.
T1 sequence (P43220 24-463): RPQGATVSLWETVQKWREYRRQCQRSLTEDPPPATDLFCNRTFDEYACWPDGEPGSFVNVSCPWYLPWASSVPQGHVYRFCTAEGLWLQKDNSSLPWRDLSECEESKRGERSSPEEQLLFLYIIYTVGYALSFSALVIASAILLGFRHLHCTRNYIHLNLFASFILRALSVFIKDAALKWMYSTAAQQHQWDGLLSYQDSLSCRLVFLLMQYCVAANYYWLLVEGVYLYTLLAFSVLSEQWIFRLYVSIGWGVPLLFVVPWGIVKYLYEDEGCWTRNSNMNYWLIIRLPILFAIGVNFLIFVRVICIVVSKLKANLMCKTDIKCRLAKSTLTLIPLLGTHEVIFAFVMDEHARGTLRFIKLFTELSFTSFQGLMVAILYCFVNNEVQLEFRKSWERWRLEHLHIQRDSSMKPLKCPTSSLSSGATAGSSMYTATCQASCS
Description: (§1) The impact of the longevity-enabling molecule (PEG Vs. FA-peptide/binder complex) on the peptide potency was studied.
The target in data set [2] is T2, glucagon-like peptide-1 (GLP1) receptor (Homo sapiens, UniProt P43220).
T2 construct: expressed in transfected cells; host or cells: CHO-K1
T2 sequence (P43220 24-463): as above
Briefly: GLP-1 activity EC50 of OXM analogs and GLP-1 therapeutics (Example 4, Table 9). In kind it is cell-based. Conditions: Example 4; read-out: GLP-1 activity (EC50).
Description: The potencies of the modified OXM analogs newly disclosed in the present application, the OXM Analog alone, and the PEGylated OXM analog were examined and compared by measuring the EC50 of both receptors, glucagon-like peptide-1 (GLP1) and glucagon (GCGR).

In data set [3] the target is T3, GCGR (Homo sapiens, UniProt P47871). As to the kind of experiment: Glucagon activity in vitro of PEGylated and acylated OXM peptide analogs (Table 12). The format is cell-based. The conditions noted are these: for GCGR/GLP-1R: ratio of EC50 activity.
T3 sequence (P47871 26-477): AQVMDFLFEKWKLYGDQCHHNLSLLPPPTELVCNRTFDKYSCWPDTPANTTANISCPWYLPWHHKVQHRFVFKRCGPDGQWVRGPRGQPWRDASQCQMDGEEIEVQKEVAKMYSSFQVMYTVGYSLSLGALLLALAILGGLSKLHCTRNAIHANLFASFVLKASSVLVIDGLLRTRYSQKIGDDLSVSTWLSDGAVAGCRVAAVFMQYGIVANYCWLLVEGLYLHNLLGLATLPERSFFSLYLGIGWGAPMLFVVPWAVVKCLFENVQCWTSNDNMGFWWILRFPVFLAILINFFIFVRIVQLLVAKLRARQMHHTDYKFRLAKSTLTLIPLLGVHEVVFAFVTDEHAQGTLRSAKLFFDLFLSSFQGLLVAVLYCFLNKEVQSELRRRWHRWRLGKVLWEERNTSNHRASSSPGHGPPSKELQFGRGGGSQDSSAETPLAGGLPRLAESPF
Protocol: (§2) The potential benefits of novel acylated OXM products relative to the PEGylated OXM peptide were evaluated for GLP-1 and Glucagon activity in vitro, molecular weight, dosing, and efficacy in a DIO Mouse model.
(§3) The potency of the acylated OXM peptides was compared with the native OXM peptide alone and Pegylated OXM peptide to evaluate the impact of acylation on GLP-1 and Glucagon activities.
The target in data set [4] is T1, GLP1. As to the kind of experiment: GLP-1 activity in vitro of PEGylated and acylated OXM peptide analogs (Table 12). The format is cell-based.
Protocol: as §2, §3
The target in data set [5] is T3, GCGR. Briefly: CBA potency assay, GCGR (Tables 10 and 11). In kind it is cell-based.
Description: as §1
A further data set deals with DIO mice. As to the kind of experiment: Weight loss in DIO mice with OPK-88604 and OPK-88006, 30 nmoles/kg. The conditions noted are these: vs placebo. The format is in vivo. The protocol: The animals were individually weighed and analyzed for lipid and cholesterol levels prior to treatment and following completion of the study. The levels of fasting glucose and insulin levels were analyzed, and oral glucose tolerance test was performed and compared between groups The levels of plasma triglycerides and cholesterol were evaluated at the end of study and compared to base levels prior to treatment. Levels of total cholesterol, triglycerides and glycogen were also examined at the end of study. Histology of liver was used to analyze for lipid droplets in the liver. All tests were conducted using routine methods known in the art.
DIO mice with weights of around 55 grams were divided into three groups and treated with placebo, 30 nmoles/kg of OPK-88604, or 30 nmoles/kg of OPK-88006 for 4 weeks. The animals were weighed daily for the period of treatment.

Data set [6] is described as follows: Viscosity of the formulated PEGylated OXM product. In kind it is physicochemical.

The term EC50 denotes the concentration giving half of the maximal effect. In the case of `CC[C@H](C)[C@H](NC(=O)[C@H](CC(N)=O)NC(=O)[C@H](CC(N)=O)NC(=O)[C@H](CCCNC(=N)N)NC(=O)[C@H](CC(N)=O)NC(=O)[C@H](CCCNC(=N)N)NC(=O)CNC(=O)C(C)(C)NC(=O)[C@H](CC(N)=O)NC(=O)[C@H](CC(C)C)NC(=O)[C@H](CC(C)C)NC(=O)[C@H](Cc1c[nH]c2ccccc12)NC(=O)[C@H](CCC(N)=O)NC(=O)[C@@H](NC(=O)[C@H](Cc1ccccc1)NC(=O)[C@H](CCC(=O)O)NC(=O)[C@H](CCC(N)=O)NC(=O)[C@H](C)NC(=O)[C@H](CCCCN)NC(=O)[C@H](CCCCN)NC(=O)[C@H](CO)NC(=O)[C@H](CC(=O)O)NC(=O)[C@H](CC(C)C)NC(=O)[C@H](Cc1ccc(O)cc1)NC(=O)[C@H](CCCCN)NC(=O)[C@H](CO)NC(=O)[C@H](Cc1ccc(O)cc1)NC(=O)[C@H](CC(=O)O)NC(=O)[C@H](CO)NC(=O)[C@@H](NC(=O)[C@H](Cc1ccccc1)NC(=O)[C@@H](NC(=O)CNC(=O)[C@H](CCC(N)=O)NC(=O)C(C)(C)NC(=O)[C@@H](N)Cc1c[nH]cn1)[C@@H](C)O)[C@@H](C)O)C(C)C)C(=O)N[C@@H](C)C(=O)N[C@@H](CS)C(=O)N[C@@H](CS)C(N)=O` [OPK-88003 KPI], the “% EC50 compare to KPI (GLP1)” value came to 100% at GLP1 [1] (Table 10); 107% at GLP1 [1] (Table 11, + HSA); 100% on GLP1 [1] (Table 11, without HSA). Further, the EC50 came to 0.127 nM on GLP1 [1] (Table 10); 0.187 nM at GLP1 [1] (Table 11, + HSA); 0.201 nM at GLP1 [1] (Table 11, without HSA); 105 pM in data set [2]; 0.0731 nM at GCGR [3]; 0.0168 nM at GLP1 [4]. For the same compound, the EC50 stood at 0.6 nM at GCGR [5] (Table 10); 1.06 nM at GCGR [5] (Table 11, + HSA); 1.37 nM at GCGR [5] (Table 11, without HSA). Further, the GCGR/GLP-1R on GCGR [3] is recorded as 4.4. Further, the “% EC50 compare to KPI (GCGR)” value on GCGR [5] (Table 10) stood at 100%; at GCGR [5] (Table 11, + HSA), 129%; at GCGR [5] (Table 11, without HSA), 100%. Further, the “EC50 ratio (GCGR\GLP-1R)” value was found to be 4.7 at GCGR [5] (Table 10); 5.7 at GCGR [5] (Table 11, + HSA); 6.8 on GCGR [5] (Table 11, without HSA).

For the compound `CC[C@H](C)[C@H](NC(=O)[C@H](CC(N)=O)NC(=O)[C@H](CC(N)=O)NC(=O)[C@H](CCCNC(=N)N)NC(=O)[C@H](CC(N)=O)NC(=O)[C@H](CCCNC(=N)N)NC(=O)CNC(=O)C(C)(C)NC(=O)[C@H](CC(N)=O)NC(=O)[C@H](CC(C)C)NC(=O)[C@H](CC(C)C)NC(=O)[C@H](Cc1c[nH]c2ccccc12)NC(=O)[C@H](CCC(N)=O)NC(=O)[C@@H](NC(=O)[C@H](Cc1ccccc1)NC(=O)[C@H](CCC(=O)O)NC(=O)[C@H](CCC(N)=O)NC(=O)[C@H](C)NC(=O)[C@H](CCCCN)NC(=O)[C@H](CCCCN)NC(=O)[C@H](CO)NC(=O)[C@H](CC(=O)O)NC(=O)[C@H](CC(C)C)NC(=O)[C@H](Cc1ccc(O)cc1)NC(=O)[C@H](CCCCN)NC(=O)[C@H](CO)NC(=O)[C@H](Cc1ccc(O)cc1)NC(=O)[C@H](CC(=O)O)NC(=O)[C@H](CO)NC(=O)[C@@H](NC(=O)[C@H](Cc1ccccc1)NC(=O)[C@@H](NC(=O)CNC(=O)[C@H](CCC(N)=O)NC(=O)C(C)(C)NC(=O)[C@@H](N)Cc1c[nH]cn1)[C@@H](C)O)[C@@H](C)O)C(C)C)C(=O)N[C@@H](C)C(=O)N[C@@H](CCCCNC(=O)COCCOCCNC(=O)COCCOCCNC(=O)CC[C@H](NC(=O)CCCCCCCCCCCCCCCCCCC(=O)O)C(=O)O)C(=O)NCC(N)=O` [Variant 5] (H-H[Aib]QGTFTSDYSKYLDSKKAQEFVQWLLN[Aib]GRNRNNIAK([AEEA-AEEA-γGlu-C20 diacid])G-NH2), the “weight loss over 4 weeks (FIG. 41A, 41B)” value with DIO mice was “significant weight loss over 4 weeks”. Also, at GCGR [3], the EC50 is 0.31 nM and the GCGR/GLP-1R stood at 16.3. Also, the EC50 at GLP1 [4] worked out at 0.019 nM.

On to “OPK-88003 API: SEQ ID NO: 3 where Xaa38=Cys-PEG20 and Xaa39=Cys-PEG20”, for which the “viscosity of the formulated product” value in data set [6] was “high viscosity”.
